Measured values published in patent US20140081017A1, “Histone Deacetylase Inhibitors for Enhancing Activity of Antifungal Agents” (METHYLGENE INC., priority 2012, published 2014).
Converted amounts (≈) assume the structure as drawn. Where two headings read alike, the source gives them in different places.

How the values were obtained:
C. glabrata = assay: Checkerboard FIC assay in combination with fluconazole (MIC alone and in combination, FICI); assay type: cell-based, Candida glabrata; conditions: for FICI of combination resulting in fluconazole MIC of: 2 ug/mL / FICI of combination resulting in fluconazole MIC of: 4 ug/mL / FICI of combination resulting in fluconazole MIC of: 8 ug/mL: FICI calculated using a fluconazole MIC of 16 μg/mL; for FICI of combination resulting in fluconazole MIC of: 2 ug/mL (value in parenthesis) / FICI of combination resulting in fluconazole MIC of: 4 ug/mL (value in parenthesis) / FICI of combination resulting in fluconazole MIC of: 8 ug/mL (value in parenthesis): FICI using a fluconazole MIC of 128 μg/mL; for MIC: Nakaseomyces glabratus; for Concentration of Methylgene compound to synergize fluconazole MIC to 2 ug/mL / Concentration of Methylgene compound to synergize fluconazole MIC to 4 ug/mL / Concentration of Methylgene compound to synergize fluconazole MIC to 8 ug/mL: in combination with fluconazole; for Concentration of Methylgene compound to synergize fluconazole MIC to 2 ug/mL: fluconazole MIC lowered to 2 ug/mL; for Concentration of Methylgene compound to synergize fluconazole MIC to 4 ug/mL: fluconazole MIC lowered to 4 ug/mL; for Concentration of Methylgene compound to synergize fluconazole MIC to 8 ug/mL: fluconazole MIC lowered to 8 ug/mL; for Multiple of compound MIC to synergize fluconazole MIC to 2 ug/mL / Multiple of compound MIC to synergize fluconazole MIC to 4 ug/mL / Multiple of compound MIC to synergize fluconazole MIC to 8 ug/mL: concentration in combination as multiple of the compound's MIC alone; for Multiple of compound MIC to synergize fluconazole MIC to 2 ug/mL: fluconazole MIC 2 ug/mL; for Multiple of compound MIC to synergize fluconazole MIC to 4 ug/mL: fluconazole MIC 4 ug/mL; for Multiple of compound MIC to synergize fluconazole MIC to 8 ug/mL: fluconazole MIC 8 ug/mL
Outline: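 A fluconazole synergy checkerboard was run against C. glabrata in MOPS-buffered RPMI (pH 7.0) for about 48 h at 35 °C. Each agent was diluted 2-fold, with one row and one column holding each agent alone for MIC determination. FICI was calculated from these MICs, using a 0.5 McFarland inoculum diluted 1:100 per CLSI.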

Candida glabrata = assay: Minimal Inhibitory Concentration (MIC) assay, broth microdilution per CLSI; assay type: cell-based; conditions: Nakaseomyces glabratus, read-out: Minimum Inhibitory Concentrations against Yeast Isolates, Candida glabrata;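 note: two read times 24 hr and 48 hr of incubation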
Outline: (§1)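 CLSI broth microdilution in RPMI/0.165 M MOPS pH 7.0; 2-fold DMSO dilution series; inoculum 0.5 McFarland diluted 1:100; 35° C, ~24-48 hr; MIC = lowest conc. with no visible growth, read from plate bottom.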

Candida parapsilosis = assay: as above; assay type: cell-based; conditions: Lodderomyces parapsilosis, read-out: Minimum Inhibitory Concentrations against Yeast Isolates, Candida parapsilosis;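 note: two read times 24 hr and 48 hr of incubation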
Outline: as §1

Candida albicans = assay: as above; assay type: cell-based; conditions: Candida albicans, read-out: Minimum Inhibitory Concentrations against Yeast Isolates, Candida albicans;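 note: two read times 24 hr and 48 hr of incubation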
Outline: as §1

[1] = MIC of the example compound alone against C. glabrata in the checkerboard assay, approximately 48 hr, read-out: Methylgene MIC
[2] = test compound alone, C. glabrata, approx. 48 hr at 35° C., read-out: Compound MIC
[3] = 24 hr reading (first value of cell 24 hr/48 hr)
[4] = 48 hr reading (second value of cell 24 hr/48 hr)

Row | FICI of combination resulting in fluconazole MIC of: 2 ug/mL (C. glabrata; C. glabrata) | FICI of combination resulting in fluconazole MIC of: 4 ug/mL (C. glabrata; C. glabrata) | FICI of combination resulting in fluconazole MIC of: 8 ug/mL (C. glabrata; C. glabrata) | FICI of combination resulting in fluconazole MIC of: 2 ug/mL (value in parenthesis) (C. glabrata; C. glabrata) | FICI of combination resulting in fluconazole MIC of: 4 ug/mL (value in parenthesis) (C. glabrata; C. glabrata) | FICI of combination resulting in fluconazole MIC of: 8 ug/mL (value in parenthesis) (C. glabrata; C. glabrata) | MIC (C. glabrata; [1]) [µg/mL] | MIC (C. glabrata; [2]) [µg/mL] | Concentration of Methylgene compound to synergize fluconazole MIC to 2 ug/mL (C. glabrata; C. glabrata) [µg/mL] | Concentration of Methylgene compound to synergize fluconazole MIC to 4 ug/mL (C. glabrata; C. glabrata) [µg/mL] | Concentration of Methylgene compound to synergize fluconazole MIC to 8 ug/mL (C. glabrata; C. glabrata) [µg/mL] | MIC (Candida glabrata; [3]) [µg/mL] | MIC (Candida glabrata; [4]) [µg/mL] | MIC (Candida parapsilosis; [3]) [µg/mL] | MIC (Candida parapsilosis; [4]) [µg/mL] | MIC (Candida albicans; [3]) [µg/mL] | MIC (Candida albicans; [4]) [µg/mL] | Multiple of compound MIC to synergize fluconazole MIC to 2 ug/mL (C. glabrata) | Multiple of compound MIC to synergize fluconazole MIC to 4 ug/mL (C. glabrata) | Multiple of compound MIC to synergize fluconazole MIC to 8 ug/mL (C. glabrata) | Structure (SMILES)
1 | 0.313 | 0.250 | 0.313 | 0.266 | 0.156 | 0.125 | > 16 | > 16 | 8 | 4 | 2 | 16 (≈ 37.8 µM) | 64 (≈ 151 µM) | > 64 | > 64 | > 64 | > 64 |  |  |  | CN1CCC(C(=O)Nc2cccc(CCCCc3ccc(CC(=O)NO)cc3)c2)CC1 [Example 43, N-(3-(4-(4-(2-(hydroxyamino)-2-oxoethyl)phenyl)butyl)phenyl)-1-methylpiperidine-4-carboxamide]
2 | 0.188 | 0.250 | 0.313 | 0.141 | 0.156 | 0.125 | > 16 | > 16 | 4 | 4 | 2 | 16 (≈ 36.1 µM) | 64 (≈ 144 µM) | 64 (≈ 144 µM) | > 64 | > 64 | > 64 |  |  |  | CN(C)CCSCC(=O)Nc1cccc(CCCCc2ccc(CC(=O)NO)cc2)c1 [Example 44, 2-(2-(dimethylamino)ethylthio)-N-(3-(4-(4-(2-(hydroxyamino)-2-oxoethyl)phenyl)butyl)phenyl)acetamide]
3 | > 1.063 | > 0.625 | > 0.750 | > 1.016 | > 0.531 | > 0.563 | > 16 | > 16 | >16 | 16 | 16 | 32 (≈ 94 µM) | > 64 | > 64 | > 64 | > 64 | > 64 |  |  |  | CC(=O)Nc1ccccc1CCCCc1ccc(CC(=O)NO)cc1 [Example 45, 2-(4-(4-(2-acetamidophenyl)butyl)phenyl)-N-hydroxyacetamide]
4 | 0.563 | 0.625 | 0.500 | 0.516 | 0.531 | 0.313 | > 16 | > 16 | 16 | 16 | 8 | 64 (≈ 180 µM) | > 64 | > 64 | > 64 | > 64 | > 64 |  |  |  | O=C(Cc1ccc(CCCCc2ccccc2NC(=O)CO)cc1)NO [Example 46, N-hydroxy-2-(4-(4-(2-(2-hydroxyacetamido)phe-nyl)butyl)phenyl)acetamide]
5 | 0.563 | 0.375 | 0.500 | 0.516 | 0.281 | 0.313 | 16 | 16 | 8 | 4 | 4 | 4 (≈ 8.8 µM) | 16 (≈ 35.2 µM) | > 32 | > 32 | > 32 | > 32 | (½x) | (¼x) | (¼x) | O=C(Cc1ccc(CCCCc2ccc(NC(=O)NCCN3CCOCC3)cc2)cc1)NO [Example 47, N-hydroxy-2-(4-(4-(4-(3-(2-morpholinoethyl)ureido)phenyl)butyl)phenyl)acetamide]
6 | 0.188 | 0.188 | 0.313 | 0.141 | 0.094 | 0.125 | > 4 | > 4 | 1 | 0.5 | 0.5 | > 4 | > 4 | > 4 | > 4 | > 4 | > 4 |  |  |  | COC(=O)Nc1ccc(CCCCc2ccc(CC(=O)NO)cc2)cc1 [Example 48, methyl 4-(4-(4-(2-(hydroxyamino)-2-oxoethyl)phenyl)butyl) phenylcarbamate]
7 | 0.188 | 0.250 | 0.313 | 0.141 | 0.156 | 0.125 | > 16 | > 16 | 4 | 4 | 2 | 16 (≈ 34.2 µM) | > 64 | > 64 | > 64 | > 64 | > 64 |  |  |  | CN1CCN(CCNC(=O)Nc2cccc(CCCCc3ccc(CC(=O)NO)cc3)c2)CC1 [Example 49, N-hydroxy-2-(4-(4-(3-(3-(2-(4-methylpiperazin-1-yl)ethyl)ureido)phenyl)butyl)phenyl)acetamide]
8 | 0.313 | 0.250 | 0.375 | 0.266 | 0.156 | 0.188 | 16 | 16 | 4 | 2 | 2 | 8 (≈ 17.6 µM) | 16 (≈ 35.2 µM) | > 64 | > 64 | > 64 | > 64 | (¼x) | (⅛x) | (⅛x) | O=C(Cc1ccc(CCCCc2cccc(NC(=O)NCCN3CCOCC3)c2)cc1)NO [Example 50, N-hydroxy-2-(4-(4-(3-(3-(2-morpholinoethyl)urei-do)phenyl)butyl)phenyl)acetamide]
